Results as given in PubChem BioAssay (NCI).
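Briefly, cells in 96-well plates were exposed to five compound concentrations for 48 h, and endpoints were estimated by linear interpolation. Definition used: TGI = concentration required for complete inhibition of growth.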

Tests used:
Experiment in all cases: DTP human tumour cell line panel, 48 h
OVCAR-3 ovarian = test system: OVCAR-3 ovarian
NCI-H226 lung = test system: NCI-H226 lung
UACC-257 melanoma = test system: UACC-257 melanoma
TK-10 renal = test system: TK-10 renal
SK-MEL-5 melanoma = test system: SK-MEL-5 melanoma
M19-MEL melanoma = test system: M19-MEL melanoma
DMS 114 small cell lung = test system: DMS 114 small cell lung
NCI-H522 lung = test system: NCI-H522 lung
HOP-62 NSCLC = test system: HOP-62 NSCLC
HOP-18 NSCLC = test system: HOP-18 NSCLC
SN12C renal = test system: SN12C renal
EKVX NSCLC = test system: EKVX NSCLC
LOX IMVI melanoma = test system: LOX IMVI melanoma
CCRF-CEM leukemia = test system: CCRF-CEM leukemia
ACHN renal = test system: ACHN renal
OVCAR-5 ovarian = test system: OVCAR-5 ovarian
XF 498 CNS = test system: XF 498 CNS
A549 NSCLC = test system: A549 NSCLC
HL-60(TB) leukemia = test system: HL-60(TB) leukemia
786-0 renal = test system: 786-0 renal
DLD-1 colon = test system: DLD-1 colon
NCI-H23 lung = test system: NCI-H23 lung
SNB-19 CNS = test system: SNB-19 CNS
U251 CNS = test system: U251 CNS
K-562 leukemia = test system: K-562 leukemia
KM20L2 colon = test system: KM20L2 colon
SNB-78 CNS = test system: SNB-78 CNS
RXF 393 renal = test system: RXF 393 renal
SK-OV-3 ovarian = test system: SK-OV-3 ovarian
SW-620 colon = test system: SW-620 colon
M14 melanoma = test system: M14 melanoma
SR leukemia = test system: SR leukemia
OVCAR-8 ovarian = test system: OVCAR-8 ovarian
LXFL 529 NSCLC = test system: LXFL 529 NSCLC
UO-31 renal = test system: UO-31 renal
RXF-631 renal = test system: RXF-631 renal
HCT-15 colon = test system: HCT-15 colon
RPMI-8226 leukemia = test system: RPMI-8226 leukemia
HT29 colon = test system: HT29 colon
OVCAR-4 ovarian = test system: OVCAR-4 ovarian
MALME-3M melanoma = test system: MALME-3M melanoma
HCT-116 colon = test system: HCT-116 colon
KM12 colon = test system: KM12 colon
HCC-2998 colon = test system: HCC-2998 colon
SK-MEL-2 melanoma = test system: SK-MEL-2 melanoma
CAKI-1 renal = test system: CAKI-1 renal
SF-539 CNS = test system: SF-539 CNS
SK-MEL-28 melanoma = test system: SK-MEL-28 melanoma
IGROV1 ovarian = test system: IGROV1 ovarian
SF-268 CNS = test system: SF-268 CNS
MOLT-4 leukemia = test system: MOLT-4 leukemia
SF-295 CNS = test system: SF-295 CNS
HOP-92 NSCLC = test system: HOP-92 NSCLC
NCI-H460 lung = test system: NCI-H460 lung
UACC-62 melanoma = test system: UACC-62 melanoma
COLO 205 colon = test system: COLO 205 colon
A498 renal = test system: A498 renal
DMS 273 small cell lung = test system: DMS 273 small cell lung
SNB-75 CNS = test system: SNB-75 CNS

Measured: TGI

COC(=O)C(=O)C(CC(=O)Nc1c(C)cccc1C)C(=O)OC (stereo not given)
not listed: COLO 205 colon | A498 renal | DMS 273 small cell lung | SNB-75 CNS
> 100 µM: all other assays above

CCOC(=O)C(C(=O)OCC)P(=S)(S)c1ccccc1 (stereo not given)
not listed: OVCAR-3 ovarian | HOP-18 NSCLC | SNB-78 CNS | M14 melanoma | HCT-15 colon | RPMI-8226 leukemia | HCT-116 colon | HCC-2998 colon | SNB-75 CNS
> 100 µM: all other assays above

CCOC(=O)C(/C(=N/NC(=O)OC)C(=O)Nc1ccc(C(C)=O)cc1)c1cnc2ccccc2n1 (stereo not given)
not listed: RPMI-8226 leukemia | SK-MEL-2 melanoma | MOLT-4 leukemia | DMS 273 small cell lung
> 100 µM: all other assays above
